Columns and labels:
[1] = target: T1, NMDA receptor glycine B site (Rattus norvegicus, UniProt P35439); test: Whole cell patch-clamp recordings, rat hippocampal neurons (NMDA/D-Serine currents); type: cell-based; conditions: NMDA 200 μM + D-Serine 1 μM, -70 mV, read-out: NMDA-PC-r-HIC-NAM - IC50
Description: (§1) Antagonistic potencies of the test compounds are functionally evaluated using electrophysiological whole cell patch-clamp recordings and/or fluorometric intracellular Ca^2+-imaging (FLIPR) screens.
Cell preparation is performed as described by Parsons, et al. (Neuropharmacology, 1998, 37(6), 719-727). The female Sprague-Dawley rat is anaesthetised by placing in a saturated CO2-euthanasia chamber under further quiet CO2-influx. Under these conditions the rat loses consciousness after a few seconds and is then sacrificed by cervical dislocation. After opening the abdominal cavity, embryos (E20) are removed and stored in ice cold Ca^2+- and Mg^2+-free Hank's Buffered Salt Solution (pH 7.3), containing 4 g/l glucose (HBSS-CMF). Hippocampi are then isolated from the brains of at least 8 embryos after decapitation, transferred into ice cold HBSS-CMF and washed 3 to 4 times.
Hippocampi are pre-incubated for 8 min with a 0.66% trypsin (Sigma-Aldrich) and 0.1% (20 U/ml) DNAase solution (Sigma-Aldrich) in Ca^2+-free Phosphate Buffered Saline (PBS-CF) and washed 3 times with HBSS-CMF. Cells are then mechanically dissociated by trituration in a PBS-CF solution containing 0.05% (10 U/ml) DNAase and 0.3% of the trypsin inhibitor ovomucoid (all from Sigma-Aldrich). The cells are then centrifuged at 180×g for 10 minutes, and the cell pellet re-suspended in basal Minimum essential medium (MEM, Invitrogen, Karlsruhe, Germany), again carefully triturated to ensure maximal dissociation and finally plated in the flexiPERM inserts (Thermo Fisher Scientific, Langenselbold, Germany) at a density of 15×10^3 cells/cm^2 (0.5 ml/insert) onto poly-DL-ornithine (Sigma) and mouse laminin (Invitrogen) pre-coated plastic petri dishes. After 1 hour the cells become attached to the bottom of the dish and the inserts may be removed. The cells are then nourished with 2 ml MEM supplemented with 5% foetal calf serum (FCS) and 5% horse serum and incubated at 37° C. with 95% air and 5% CO2 at 95% humidity. After 4 days in vitro (DIV) further glial mitosis is inhibited by adding 10 μl of AraC (5 μM endconcentration). The medium is completely exchanged after an additional 2 DIV and again, but only partly (50%), after 8 DIV. The cells are used for electrophysiological recordings after 11-15 DIV.
Cells are visualised using an inverted microscope and selected for patching based upon their position and morphology. Voltage clamp recordings are made in the whole cell configuration of the patch clamp technique at a holding potential of −70 mV with the aid of an EPC-10 amplifier in combination with pipette manipulator. Patch clamp pipettes are pulled from borosilicate glass using a horizontal puller (P-97 Puller, Sutter Instruments, USA) and, when filled with intracellular solution, have resistances of 1-4 MΩ.
Solutions are delivered via a home-made gravity driven very fast perfusion system (<10 ms) including valves to switch flow on and off in combination with a stepper motor-driven double-barrelled theta glass application pipette in order to expose cells to either agonist-free or agonist-containing solutions in presence or absence of antagonist.
The intracellular solution used consists of: 120 mM CsCl, 10 mM EGTA, 1 mM MgCl2, 200 μM CaCl2, 10 mM glucose and 22 mM tetraethyl ammonium chloride (TEA-CL). The corresponding extracellular bath solution contains: 140 mM NaCl, 3 mM KCl, 10 mM glucose, 10 mM HEPES, 1.5 mM CaCl2 and 4.5 mM sucrose (all from Sigma-Aldrich) pH 7.3, and is supplemented with 0.3 μM tetrodotoxin (TTX, Tocris, Bristol, U.K.) to block voltage-activated sodium channels and 0.25 μM bicuculline (Sigma-Aldrich) to block GABAA receptors. […]

[2] = target: T2, glycine binding pocket of the NMDA receptor (Rattus norvegicus, UniProt P35439); test: [3H]MDL-105,519 displacement studies (rat cortical membranes); conditions: displacement of 2 nM [3H]-MDL-105,519, rat cortical membranes; read-out: NMDA-MDL 105519-r-CTX - IC50
T2 construct: For isolation of the cell membranes, the cortices are homogenized; from tissue; host or cells: rat cerebral cortex membranes (male Sprague-Dawley)

[3] = target: T1, NMDA receptor glycine B site; test: Calcium FLIPR studies, rat cortical neurons (NMDA/D-Serine induced intracellular calcium); type: cell-based; parameters: Primary neurons are prepared from cortices of embryonal rats at day 17 of pregnancy; endogenous in cells; host or cells: primary rat cortical neurons (E17, 11-13 DIV); conditions: rat cortical neurons; stimulation with 30 μM NMDA and 1 μM D-Serine; antagonist pre-incubated 10 min; read-out: NMDA-FLIPR-rCTX-NAM - IC50
Description: as §1
Sprague-Dawley rat embryos (E 17) are decapitated and neocortices are dissected, trypsinized and carefully triturated. The cell suspension is plated on poly-D-lysine pre-coated 96-well Plates (Greiner, Frickenhausen, Germany) at a cell density of 55.000 cells/well. The neurons are cultivated in Neurobasal media containing B27-Supplement and […] L-Glutamine (Biochrom) at 37° C. in a humidified atmosphere of 5% CO2/95% air. Medium is exchanged completely at day 4 and to 50% on day 7. At the time of experiments neurons are 11-13 days in vitro.
The increase of intracellular calcium after stimulation with 30 μM NMDA and 1 μM D-Serine is measured using the fluorometric imaging plate reader (FLIPR) and the Calcium-4-Kit (both Molecular Devices, Ismaning, Germany). Prior to addition of agonist or antagonist (5 different concentrations, n=5) the medium is aspirated and cells are washed once before loading with 150 μL of loading buffer (1 h at room temperature), consisting of Ca-4 sensitive dye reconstituted in extracellular bath solution, pH 7.3. Subsequently, plates are transferred to FLIPR to detect increases in intracellular calcium after the addition of agonist, measured as relative fluorescence units (RFU). Antagonists are pre-incubated with the cells for 10 min at room temperature before the addition of the agonist and co-agonist.
The fluorescence signal increase after addition of agonist reflects the increase of intracellular calcium. Inconsistencies in the amount of cells per well are normalised by using the spatial uniformity correction of the FLIPR software (Screenworks, Molecular Devices). The mean of replicated temporal data (n=5) is calculated and used for graphical representation. For the evaluation of the antagonistic potency, the calcium changes in response to different concentrations of antagonist are determined using an area under the curve (AUC) calculation. All responses (RFU-values) are determined as percentage of control (=maximum response at 30 μM NMDA and 1 μM D-Serine). IC50 values are calculated according the four parameter logistic equation using GraFit (Erithacus Software).

SMILES: O=C(COc1cc(C(=O)O)cc2cc(Cl)cc(Cl)c12)Nc1ccc(O)cc1 [Example 8, 5,7-Dichloro-4-[(4-hydroxyphenylcarbamoyl)-methoxy]-naphthalene-2-carboxylic acid]
- IC50 [1]: 287 nM
- IC50 [2]: 1850 nM

SMILES: O=C(COc1cc(C(=O)O)cc2cc(Cl)cc(Cl)c12)Nc1cccc(OCC(=O)N2CCOCC2)c1 [Example 47, 5,7-Dichloro-4-{[3-(2-morpholin-4-yl-2-oxo-ethoxy)-phenylcarbamoyl]-methoxy}-naphthalene-2-carboxylic acid]
- IC50 [1]: 87 nM
- IC50 [2]: 218 nM

SMILES: N#Cc1ccccc1NC(=O)COc1cc(C(=O)O)cc2cc(Cl)cc(Cl)c12 [Example 82, 5,7-Dichloro-4-[(2-cyano-phenylcarbamoyl)-methoxy]-naphthalene-2-carboxylic acid]
- IC50 [2]: 440 nM
- melting point: > 250 °C

SMILES: O=C(O)COc1ccc(NC(=O)COc2cc(C(=O)O)cc3cc(Cl)cc(Cl)c23)c(OCC(=O)O)c1 [Example 83, 4-[(2,4-Bis-carboxymethoxy-phenylcarbamoyl)-methoxy]-5,7-dichloro-naphthalene-2-carboxylic acid]
- IC50 [3]: 1320 nM
- IC50 [2]: 252 nM
- melting point: > 220 °C (dec.)

SMILES: O=C(COc1cc(C(=O)O)cc2cc(Cl)cc(Cl)c12)Nc1ccccc1-c1nnn[nH]1 [Example 85, 5,7-Dichloro-4-{[2-(1H-tetrazol-5-yl)-phenylcarbamoyl]-methoxy}-naphthalene-2-carboxylic acid]
- IC50 [3]: 930 nM
- IC50 [2]: 233 nM
- melting point: 247 to 248 °C

SMILES: O=C(O)COc1ccc(CO)cc1NC(=O)COc1cc(C(=O)O)cc2cc(Cl)cc(Cl)c12 [Example 94, 4-[(2-Carboxymethoxy-5-hydroxymethyl-phenylcarbamoyl)-methoxy]-5,7-dichloro-naphthalene-2-carboxylic acid]
- IC50 [3]: 1050 nM
- IC50 [2]: 150 nM
- melting point: 185 to 187 °C (dec.)

SMILES: O=C(O)CCc1cccc(NC(=O)COc2cc(C(=O)O)cc3cc(Cl)cc(Cl)c23)c1 [Example 96, 4-{[3-(2-Carboxy-ethyl)-phenylcarbamoyl]-methoxy}-5,7-dichloro-naphthalene-2-carboxylic acid]
- IC50 [3]: 5820 nM
- IC50 [2]: 393 nM
- melting point: > 230 °C (dec.)

SMILES: O=C(COc1cc(C(=O)O)cc2cc(Cl)cc(Cl)c12)NCc1ccccn1 [Example 103, 5,7-Dichloro-4-{[(pyridin-2-ylmethyl)-carbamoyl]-methoxy}-naphthalene-2-carboxylic acid]
- IC50 [3]: 8550 nM
- IC50 [2]: 430 nM
- melting point: > 240 °C (dec.)

SMILES: NC(=O)c1cccc(NC(=O)COc2cc(C(=O)O)cc3cc(Cl)cc(Cl)c23)c1 [Example 113, 4-[(3-Carbamoyl-phenylcarbamoyl)-methoxy]-5,7-dichloro-naphthalene-2-carboxylic acid]
- IC50 [2]: 284 nM
- melting point: > 250 °C

SMILES: O=C(COc1cc(C(=O)O)cc2cc(Cl)cc(Cl)c12)Nc1cccc(OCc2nnn[nH]2)c1OCc1nnn[nH]1 [Example 128, 4-{[2,3-Bis-(1H-tetrazol-5-ylmethoxy)-phenylcarbamoyl]-methoxy}-5,7-dichloro-naphthalene-2-carboxylic acid]
- IC50 [2]: 1370 nM
- melting point: 246 to 247 °C

SMILES: Cc1nc(NC(=O)COc2cc(C(=O)O)cc3cc(Cl)cc(Cl)c23)sc1C [Example 135, 5,7-Dichloro-4-[(4,5-dimethyl-thiazol-2-ylcarbamoyl)-methoxy]-naphthalene-2-carboxylic acid]
- melting point: > 250 °C

SMILES: NC(=O)c1[nH]cnc1NC(=O)COc1cc(C(=O)O)cc2cc(Cl)cc(Cl)c12 [Example 136, 4-[(5-Carbamoyl-1H-imidazol-4-ylcarbamoyl)-methoxy]-5,7-dichloro-naphthalene-2-carboxylic acid]
- melting point: > 250 °C

SMILES: N#CCc1ccccc1NC(=O)COc1cc(C(=O)O)cc2cc(Cl)cc(Cl)c12 [Example 137, 5,7-Dichloro-4-[(2-cyanomethyl-phenylcarbamoyl)-methoxy]-naphthalene-2-carboxylic acid]
- melting point: 246 to 247 °C
